Laboratory results reported in patent EP0257454A1, “Oil-in-water type fat emulsion of 1-[2-(2,4-dichlorophenyl)-3-methyl-1-pentenyl]-1H-imidazole” (MORISHITA PHARMACEUTICAL CO. LTD., priority 1986, dated 1988).

Tested on: Candida albicans (clinically isolated strain)
Assay: Activity against Candida albicans infection in mice (survival days)
Assay type: in vivo
Conditions: Mice infected with Candida albicans, tail vein injection; summary of Table 1
Procedure: Activity against Candia albicans: Male CRJ:ICR mice (5 week age, 10 mice per group) were used. The fat emulsion obtained in Example 1; an injection solution (HCO 60 preparation) wherein the compound [I] was dissolved in a concentration of 2 % (w/v) in an aqueous solution of 10 % (w/v) of polyoxyethylene hydrogenated castor oil and 5 % (w/v) of glucose; and a solvent for the HCO 60 preparation (i.e. an aqueous solution of 10 % (w/v) of polyoxyethylene hydrogenated castor oil and 5 % (w/v) of glucose (as a control) The test mice was infected with Candida albicans (clinically isolated strain) by injecting the microorganism in an amount of 5 x 10^6 cells/mouse through the tail vein. One hour after the infection, the test injection products were each injected through the tail vein, and the survival days of mice were measured. The evaluation of effect was calculated by the following formula: Average survival days in each test group T/C = x 100 Average survival days in control group

CCC(C)C(=Cn1ccnc1)c1ccc(Cl)cc1Cl (stereo not shown) [compound [I], 1-[2-(2,4-dichlorophenyl)-3-methyl-1-pentenyl]-1H-imidazole]
effect against the infection (in words): remarkedly excellent effect against the infection
